Results from US20230057568A1, “COMPOUNDS FOR TREATING FAMILIAL DYSAUTONOMIA” (PTC THERAPEUTICS, INC., priority 2019, published 2023).

Tested on: Elongator complex protein 1 (ELP1, also referred to as IKBKAP)
Assay: IKBKAP-HTRF Assay
Assay type: cell-based, human
Details: FD patient-derived fibroblasts GM04589, 48 hours incubation; for EC2x for IKBKAP protein expression (concentration producing two times the amount of IKBKAP protein vs DMSO vehicle control): 7-point concentration curve; for MFI (maximum fold increase in IKBKAP protein abundance relative to the vehicle control): HTRF
Method: The assay is used for the quantitative determination of Elongator complex protein 1 (ELP1, also referred to as IKBKAP) concentration in cell lysates using the HTRF® (Homogeneous Time-Resolved Fluorescence) technology. IKBKAP is detected in a sandwich HTRF assay by use of an anti-IKAP antibody labeled with a donor and an anti-IKAP antibody labeled with an acceptor.
Cells were thawed and incubated in DMEM-10% FBS for 72 hours. Cells were trypsinized, counted, and re-suspended to a concentration of 50,000 cells/mL in DMEM-10% FBS. A 199 μL, aliquot of the cell suspensions were plated at 10,000 cells per well in a 96 well microtiter plate and incubated for 3 to 5 hours. […] Test compounds were serially diluted 3.16-fold in 100% DMSO to generate a 7-point concentration curve. A 1 μL aliquot of 200× compound solution was transferred to cell-containing wells, and cells were incubated for 48 hours in a cell culture incubator (37° C., 5% CO2, 100% relative humidity). Triplicate samples were set up for each compound concentration. After 48 hours, the supernatant was removed from the cells and 50 μL of the 1× LB4 lysis buffer, containing protease inhibitors, was added to the cells and incubated with shaking at room temperature for 1 hour. A 36 μL aliquot of this lysate was subsequently transferred to the 384-well plate containing 4 μL of the antibody solution (1:50 dilution of anti IKAP d2 and anti-IKAP K(9+8) in detection buffer). The 384-well plate was then centrifuged for 1 minute to bring the solutions to the bottom of the plate and incubated overnight at 4° C. Fluorescence for each well of the plate at 665 nm and 620 nm was measured was on the EnVision plate reader (Perkin Elmer). The AF for each sample is calculated by: […]
wherein Signal is the normalized fluorescence for each sample well and Blank is the average normalized average fluorescence for the Blank control wells.
The maximum fold increase (MFI) in IKBKAP protein abundance for compounds of Formula (I) or a form thereof relative to the vehicle control are provided in Table 1. MFI was calculated by dividing the AF value for each sample well by the sample AF for the vehicle control wells.
The EC2× for IKBKAP protein expression obtained from the 7-point concentration curve generated for each test compound according to the protocol in Biological Example 1 are also provided in Table 1. The term “EC2× for IKBKAP protein expression” is defined as the concentration of test compound that is effective in producing two times the amount of IKBKAP protein in a FD patient cell compared to the amount produced from the DMSO vehicle control.

Structure (SMILES)	EC2x for IKBKAP protein expression (concentration producing two times the amount of IKBKAP protein vs DMSO vehicle control)	MFI (maximum fold increase in IKBKAP protein abundance relative to the vehicle control)
Cc1csc(CNc2nc(Cl)nc3c(C)c(C[C@H](C)N)sc23)n1 [Cpd 27, 6-[(2S)-2-aminopropyl]-2-chloro-7-methyl-N-[(4-methyl-1,3-thiazol-2-yl)methyl]thieno[3,2-d]pyrimidin-4-amine]	** (between >0.5 μL and ≤1 μM)	*** (between >2.9 and <3.9)
Cc1c(C[C@H](C)N)sc2c(NCc3ccccc3F)nc(Cl)nc12 [Cpd 44, 6-[(2S)-2-aminopropyl]-2-chloro-N-[(2-fluorophenyl)methyl]-7-methylthieno[3,2-d]pyrimidin-4-amine]	***** (<0.005 μM)	***** (>4.9)
CC[C@H](N)Cc1sc2c(NCc3cccs3)nc(Cl)nc2c1C [Cpd 37, 6-[(2S)-2-aminobutyl]-2-chloro-7-methyl-N-[(thiophen-2-yl)methyl]thieno[3,2-d]pyrimidin-4-amine]	***** (<0.005 μM)	***** (>4.9)
Cc1c(C[C@H](C)N)sc2c(NCc3ccccc3)nc(Cl)nc12 [Cpd 34, 6-[(2S)-2-aminopropyl]-N-benzyl-2-chloro-7-methylthieno[3,2-d]pyrimidin-4-amine]	***** (<0.005 μM)	***** (>4.9)
Cc1c(C[C@H](C)N)sc2c(NCc3cnccn3)nc(Cl)nc12 [Cpd 32, 6-[(2S)-2-aminopropyl]-2-chloro-7-methyl-N-[(pyrazin-2-yl)methyl]thieno[3,2-d]pyrimidin-4-amine]	*** (between >0.02 μM and ≤0.5 μM)	**** (between >3.9 and <4.9)
Cc1c(C[C@@H](C)CO)sc2c(NCc3ccco3)nc(Cl)nc12 [Cpd 71, (2R)-3-(2-chloro-4-{[(furan-2-yl)methyl]amino}-7-methylthieno[3,2-d]pyrimidin-6-yl)-2-methylpropan-1-ol]	* (EC2×>1 μM)	* (MFI<1.9)
CC[C@H](N)Cc1sc2c(NCc3ccncn3)nc(Cl)nc2c1C [Cpd 89, 6-[(2S)-2-aminobutyl]-2-chloro-7-methyl-N-[(pyrimidin-4-yl)methyl]thieno[3,2-d]pyrimidin-4-amine]	***** (<0.005 μM)	***** (>4.9)
CC[C@H](N)c1sc2c(NCc3ccco3)nc(Cl)nc2c1C [Cpd 48, 6-[(1S)-1-aminopropyl]-2-chloro-N-[(furan-2-yl)methyl]-7-methylthieno[3,2-d]pyrimidin-4-amine]	*** (between >0.02 μM and ≤0.5 μM)	** (between >1.9 and <2.9)
COc1c(C[C@@H](N)CO)sc2c(NCc3cccs3)nc(Cl)nc12 [Cpd 99, (2R)-2-amino-3-(2-chloro-7-methoxy-4-{[(thiophen-2-yl)methyl]amino}thieno[3,2-d]pyrimidin-6-yl)propan-1-ol]	**** (between >0.005 μM and ≤0.02 μM)	*** (between >2.9 and <3.9)
Cc1csc2c(NCc3ccncc3)nc(Cl)nc12 [Cpd 23, 2-chloro-7-methyl-N-[(pyridin-4-yl)methyl]thieno[3,2-d]pyrimidin-4-amine]	*** (between >0.02 μM and ≤0.5 μM)	***** (>4.9)
C[C@H](N)Cc1sc2c(NCc3ccco3)nc(Cl)nc2c1C1CC1 [Cpd 36, 6-[(2S)-2-aminopropyl]-2-chloro-7-cyclopropyl-N-[(furan-2-yl)methyl]thieno[3,2-d]pyrimidin-4-amine]	**** (between >0.005 μM and ≤0.02 μM)	***** (>4.9)
Cc1c(C[C@H](C)N)sc2c(NCc3ncncc3F)nc(Cl)nc12 [Cpd 98, 6-[(2S)-2-aminopropyl]-2-chloro-N-[(5-fluoropyrimidin-4-yl)methyl]-7-methylthieno[3,2-d]pyrimidin-4-amine]	**** (between >0.005 μM and ≤0.02 μM)	***** (>4.9)
Clc1nc(NCc2nccs2)c2sccc2n1 [Cpd 96, 2-chloro-N-[(1,3-thiazol-2-yl)methyl]thieno[3,2-d]pyrimidin-4-amine]	* (EC2×>1 μM)	** (between >1.9 and <2.9)
Cc1c(C2CNC2)sc2c(NCc3ccco3)nc(Cl)nc12 [Cpd 41, 6-(azetidin-3-yl)-2-chloro-N-[(furan-2-yl)methyl]-7-methylthieno[3,2-d]pyrimidin-4-amine]	*** (between >0.02 μM and ≤0.5 μM)	** (between >1.9 and <2.9)
Cc1cnc(CNc2nc(Cl)nc3c(C)c(C[C@H](C)N)sc23)s1 [Cpd 31, 6-[(2S)-2-aminopropyl]-2-chloro-7-methyl-N-[(5-methyl-1,3-thiazol-2-yl)methyl]thieno[3,2-d]pyrimidin-4-amine]	*** (between >0.02 μM and ≤0.5 μM)	*** (between >2.9 and <3.9)
Cc1c(C[C@@H](C)CN)sc2c(NCc3ccco3)nc(Cl)nc12 [Cpd 72, 6-[(2R)-3-amino-2-methylpropyl]-2-chloro-N-[(furan-2-yl)methyl]-7-methylthieno[3,2-d]pyrimidin-4-amine]	*** (between >0.02 μM and ≤0.5 μM)	*** (between >2.9 and <3.9)
C[C@H](N)c1sc2c(NCc3ccco3)nc(Cl)nc2c1-c1ccccc1 [Cpd 58, 6-[(1S)-1-aminoethyl]-2-chloro-N-[(furan-2-yl)methyl]-7-phenylthieno[3,2-d]pyrimidin-4-amine]	* (EC2×>1 μM)	* (MFI<1.9)
Cc1c(C[C@H](C)N)sc2c(NCc3ncccc3F)nc(Cl)nc12 [Cpd 59, 6-[(2S)-2-aminopropyl]-2-chloro-N-[(3-fluoropyridin-2-yl)methyl]-7-methylthieno[3,2-d]pyrimidin-4-amine]	*** (between >0.02 μM and ≤0.5 μM)	**** (between >3.9 and <4.9)
Cc1c(C[C@H](C)N)sc2c(NCc3ccno3)nc(Cl)nc12 [Cpd 39, 6-[(2S)-2-aminopropyl]-2-chloro-7-methyl-N-[(1,2-oxazol-5-yl)methyl]thieno[3,2-d]pyrimidin-4-amine]	*** (between >0.02 μM and ≤0.5 μM)	***** (>4.9)
Cc1c(C[C@H](C)N)sc2c(NCc3cncs3)nc(Cl)nc12 [Cpd 74, 6-[(2S)-2-aminopropyl]-2-chloro-7-methyl-N-[(1,3-thiazol-5-yl)methyl]thieno[3,2-d]pyrimidin-4-amine]	*** (between >0.02 μM and ≤0.5 μM)	**** (between >3.9 and <4.9)
Cc1c(C[C@H](C)N)sc2c(NCc3ccco3)nc(Br)nc12 [Cpd 38, 6-[(2S)-2-aminopropyl]-2-bromo-N-[(furan-2-yl)methyl]-7-methylthieno[3,2-d]pyrimidin-4-amine]	***** (<0.005 μM)	***** (>4.9)
